Data taken from patent publication US20230068990A1, “PLATELET STORAGE METHODS AND COMPOSITIONS” (Platefuse, Inc., priority 2020, published 2023).

What was measured:
[1] = system: washed human platelet suspension; assay: Inhibition of collagen-induced platelet aggregation (aggregometer); assay type: cell-based; conditions: washed human platelets, 2 min preincubation, collagen 4 μg/ml, read-out 6 min after induction
Procedure: Platelet shape change in washed platelets was monitored using an aggregometer and the decrease in light transmittance following addition of an agonist (Huzoor et al., 1993). For the purpose of this analysis, collagen was used as the agonist. Briefly, a washed human platelet suspension was incubated at 37° C. in a Lumi-Aggregometer (Chrono-Log Corporation) with stirring at 900 rpm, followed by the addition of dimethylsulfoxide (DMSO) as a control vehicle, or DMSO containing (S)G04 or (R)G04 (FIG. 1A). (S)G04 and (R)G04 were tested at concentrations of 1, 5, 10, 30 and 50 μM.
After incubating the samples with the respective compound for 2 minutes, platelet aggregation was induced by adding collagen ([…]) and the relative aggregation value was read out at 6 min after the induction. A dose response for each compound was derived.
In these experiments, a collagen concentration of 4 μg/ml was used. The IC50 values calculated for (R)G04 and (S)G04 are 40 μM and 4 μM, respectively.

[2] = Pharmacokinetic study of (S)G04 in mice, serum UPLC-MS/MS; assay type: in vivo; conditions: IV injection of 10 and 50 μM in PAS buffer
Procedure: Standard (S)G04 was diluted from DMSO stock (50 mM) with PAS buffer into 10 and 50 μM, administered to mice via IV injection, and serum samples were collected at time points 1, 3, 10, 30 min, and stored at −80° C. before analysis. PK samples from mice serum (retro orbital bleed) were usually 20-100 μL.
A calibration curve in the range of 0-1 μM, i.e. 0, 0.01, 0.05, 0.1, 0.5, 1 μM, was prepared by spiking standard solution ([…] (S)G04 in PAS buffer) into blank mouse serum and then conducting serial dilution accordingly.
QC samples were prepared in the same way with final concentration of 0.05 and 0.5 μM.
Samples were prepared by carrying out the following steps. Add 20 μL of mouse serum (PK samples, calibrators and QCs), and 20 μL of internal standard in methanol, vortex for 30 secs. Add 100 μL of ice cold MeOH then vortex for 1 min. Let sit for 5 minutes before submitting to centrifuge for 10 minutes at 21,100×g (RCF) at 4° C. Take 100 μL of the supernatant and transfer to autosampler vial (max recovery, Waters). Put a cap on the vial, and load vials onto UPLC-MS autosampler for analysis. Because organic solvent evaporates relatively quickly at room temperature, samples in organic solvents should not be left at room temperature longer than 6 hr before injection. Set up the UPLC-MS/MS system: cleaning cone, in accordance with the manufacturer's Operation SOP/documents. […]

[3] = system: cold-stored human platelets; assay: Human platelet recovery after xenotransfusion of cold-stored human platelets into NSG mice; assay type: in vivo, human platelets in NOD/SCID/gc-/- (NSG) mice; conditions: 10 μM in PAS-3M, cold storage 1-6° C. for 7 or 14 days, followed 24 hours post-transfusion
Procedure: To assess (S)G04 and (R)G04 prevention of platelet activation in vivo, xenotransfusion was performed of long-term (day 7, FIG. 3 and day 14, FIG. 4) stored solutions by taking an aliquot (equivalent to 1×10^6 platelets) of CFSE-labeled cold-stored human platelets (Acrodose, pooled platelets from four ABO identical donors) that were transfused to conditioned NOD/SCID/gc−/− (NSG) mice and followed for 24 hours post-transfusion.
Four storage conditions were tested. In all storage conditions, the vehicle was the platelet additive solution PAS-3M (Grifols, Barcelona, Spain). The storage conditions varied as follows (1) room temperature storage in vehicle only (RT-Vehicle), (2) cold storage (1-6° C., average ˜2° C.) in vehicle only (Cold-Vehicle), (3) cold storage in vehicle with 10 μM (S)G04 (Cold-G04-S), (4) cold storage in vehicle with 75 μM (R)G04 (Cold-G04-R).
Data is presented as an average of a triplicate analysis. […] Data is presented as an average of a triplicate analysis.

[4] = system: congenic murine platelets; assay: In vivo clot formation: tail bleeding time of aspirinated mice after platelet transfusion; conditions: 10 μM, murine platelets stored cold (1-6° C.) 4 hours, 24 hours post-administration of platelets
Procedure: Next, the influence of G04 ((S)G04 and (R)G04) on in vivo clot formation was examined. Congenic murine platelets were stored in cold (1-6° C.) for 4 hours and then administered to mice 24 hours after administration of aspirin. Bleeding time was measured for aspirinated mice receiving no platelets, vehicle-only platelets stored at room temperature, vehicle-only cold-stored platelets, vehicle+(R)G04 (75 μM) cold-stored platelets, and vehicle+(S)G04 (10 μM) cold-stored platelets. The results were compared to control non-aspirinated mice (Basal).

With `N[C@@H](Cc1c[nH]c2ccccc12)C(=O)N/N=C/c1ccc2nccnc2c1` [(S)G04] the IC50 [1] was 4 µM, the “reduction of the injection concentration in 1 minute” value [2] was > 100 × and the “survival of cold-stored platelets (recovery and AUC) after xenotransfusion” value [3] was “completely prevented the decreased survival”. The “bleeding time of aspirinated mice” value [4] was “completely corrected the bleeding time”.
